Reference: PMC6429263, “Evolution and Antibacterial Evaluation of 8-Hydroxy-cycloberberine Derivatives as a Novel Family of Antibacterial Agents Against MRSA” (Molecules, 2019)

Experiments:
MSSA ATCC 29213 = assay: MIC, agar dilution, MSSA ATCC 29213; assay type: cell-based, S. aureus; details: Staphylococcus aureus; MSSA ATCC 29213; read-out: MIC
MSSA 15 = assay: MIC, agar dilution, MSSA 15 (clinical isolate); assay type: cell-based, S. aureus; details: Staphylococcus aureus; MSSA 15, isolated from patients in China; read-out: MIC
MSSA 16-1 = assay: MIC, agar dilution, MSSA 16-1 (clinical isolate); assay type: cell-based, S. aureus; details: Staphylococcus aureus; MSSA 16-1, isolated from patients in China; read-out: MIC
MSSE ATCC 12228 = assay: MIC, agar dilution, MSSE ATCC 12228; assay type: cell-based, S. epidermidis; details: Staphylococcus epidermidis, ATCC12228; MSSE ATCC 12228; read-out: MIC
MSSE 16-5 = assay: MIC, agar dilution, MSSE 16-5 (clinical isolate); assay type: cell-based, S. epidermidis; details: Staphylococcus epidermidis; MSSE 16-5, isolated from patients in China; read-out: MIC
S.s ATCC 15305 = assay: MIC, agar dilution, S.s ATCC 15305; assay type: cell-based; details: Staphylococcus saprophyticus, ATCC15305; S. saprophyticus ATCC 15305; read-out: MIC
S.h ATCC 35982 = assay: MIC, agar dilution, S.h ATCC 35982; assay type: cell-based; details: Staphylococcus hominis, ATCC35982; S. hominis ATCC 35982; read-out: MIC
MRSA 13-18 = assay: MIC, agar dilution, MRSA 13-18; assay type: cell-based; details: Staphylococcus aureus; MRSA 13-18; read-out: MIC
MRSA 13-23 = assay: MIC, agar dilution, MRSA 13-23; assay type: cell-based; details: Staphylococcus aureus; MRSA 13-23; read-out: MIC
MRSA 16-34 = assay: MIC, agar dilution, MRSA 16-34; assay type: cell-based; details: Staphylococcus aureus; MRSA 16-34; read-out: MIC
MRSA ATCC 43300 = assay: MIC, agar dilution, MRSA ATCC 43300; assay type: cell-based; details: Staphylococcus aureus; MRSA ATCC 43300; read-out: MIC
MRSA ATCC-B AA-1708 = assay: MIC, agar dilution, MRSA ATCC-BAA-1708 (mupA positive); assay type: cell-based; details: Staphylococcus aureus; MRSA ATCC-BAA-1708, mupA positive (mupirocin resistance); read-out: MIC
MRSA ATCC -BAA-976 = assay: MIC, agar dilution, MRSA ATCC-BAA-976 (clindamycin-resistant); assay type: cell-based; details: Staphylococcus aureus; MRSA ATCC-BAA-976, clindamycin-resistant S. aureus; read-out: MIC
VISA ATCC 700698 = assay: MIC, agar dilution, VISA ATCC 700698; assay type: cell-based; details: Staphylococcus aureus; VISA ATCC 700698; read-out: MIC
VISA ATCC 700699 = assay: MIC, agar dilution, VISA ATCC 700699; assay type: cell-based; details: Staphylococcus aureus; VISA ATCC 700699; read-out: MIC
MRSE 13-3 = assay: MIC, agar dilution, MRSE 13-3; assay type: cell-based, S. epidermidis; details: Staphylococcus epidermidis; MRSE 13-3; read-out: MIC
MRSE 16-5 = assay: MIC, agar dilution, MRSE 16-5; assay type: cell-based, S. epidermidis; details: Staphylococcus epidermidis; MRSE 16-5; read-out: MIC

MIC (MSSA ATCC 29213)	MIC (MSSA 15)	MIC (MSSA 16-1)	MIC (MSSE ATCC 12228)	MIC (MSSE 16-5)	MIC (S.s ATCC 15305)	MIC (S.h ATCC 35982)	MIC (MRSA 13-18)	MIC (MRSA 13-23)	MIC (MRSA 16-34)	MIC (MRSA ATCC 43300)	MIC (MRSA ATCC-B AA-1708)	MIC (MRSA ATCC -BAA-976)	MIC (VISA ATCC 700698)	MIC (VISA ATCC 700699)	MIC (MRSE 13-3)	MIC (MRSE 16-5)	Structure (SMILES)
> 64 µg/mL	> 64 µg/mL	> 64 µg/mL	> 64 µg/mL	> 64 µg/mL	> 64 µg/mL	> 64 µg/mL	> 64 µg/mL	> 64 µg/mL	> 64 µg/mL	> 64 µg/mL	> 64 µg/mL	> 64 µg/mL	> 64 µg/mL	> 64 µg/mL	64 µg/mL	64 µg/mL	COc1ccc2c(c[n+]3ccc4cc5c(c6c(Cc7ccccc7C)cc2c3c46)OCO5)c1O [13g, 1,2-Methylenedioxy-8-hydroxy-9-methoxy-13-o-methylbenzylcycloberberine chloride]
32 µg/mL	32 µg/mL	32 µg/mL	32 µg/mL	16 µg/mL	64 µg/mL	32 µg/mL	32 µg/mL	32 µg/mL	16 µg/mL	32 µg/mL	16 µg/mL	32 µg/mL	32 µg/mL	32 µg/mL	16 µg/mL	16 µg/mL	COc1ccc2c(c[n+]3ccc4cc5c(c6c(Cc7cc(C)cc(C)c7)cc2c3c46)OCO5)c1O [13j, 1,2-Methylenedioxy-8-hydroxy-9-methoxy-13-3′,5′-dimethylbenzylcycloberberine chloride]
32 µg/mL	32 µg/mL	32 µg/mL	32 µg/mL	32 µg/mL	64 µg/mL	64 µg/mL	32 µg/mL	32 µg/mL	32 µg/mL	64 µg/mL	32 µg/mL	64 µg/mL	64 µg/mL	32 µg/mL	32 µg/mL	32 µg/mL	COc1ccc2c(c[n+]3ccc4cc5c(c6c(Cc7ccc(OC(F)(F)F)cc7)cc2c3c46)OCO5)c1O [13l, 1,2-Methylenedioxy-8-hydroxy-9-methoxy-13-p-trifluoromethoxybenzylcyclo berberine chloride]
> 64 µg/mL	> 64 µg/mL	64 µg/mL	64 µg/mL	32 µg/mL	> 64 µg/mL	64 µg/mL	> 64 µg/mL	> 64 µg/mL	> 64 µg/mL	> 64 µg/mL	> 64 µg/mL	64 µg/mL	> 64 µg/mL	64 µg/mL	64 µg/mL	32 µg/mL	COc1ccc2c(c[n+]3ccc4cc5c(c6c(Cc7cccc([N+](=O)[O-])c7)cc2c3c46)OCO5)c1O [13q, 1,2-Methylenedioxy-8-hydroxy-9-methoxy-13-m-nitrobenzylcycloberberine chloride]
16 µg/mL	8 µg/mL	16 µg/mL	4 µg/mL	4 µg/mL	32 µg/mL	8 µg/mL	32 µg/mL	8 µg/mL	8 µg/mL	64 µg/mL	4 µg/mL	32 µg/mL	4 µg/mL	4 µg/mL	> 64 µg/mL	16 µg/mL	COc1ccc2c(c[n+]3ccc4cc5c(c6c(Cc7ccc([N+](=O)[O-])cc7)cc2c3c46)OCO5)c1O [13r, 1,2-Methylenedioxy-8-hydroxy-9-methoxy-13-p-nitrobenzylcycloberberine chloride]
8 µg/mL	4 µg/mL	4 µg/mL	8 µg/mL	8 µg/mL	16 µg/mL	4 µg/mL	4 µg/mL	8 µg/mL	8 µg/mL	4 µg/mL	8 µg/mL	4 µg/mL	4 µg/mL	4 µg/mL	16 µg/mL	8 µg/mL	CCCCc1cc2c3ccc(OC)c(O)c3c[n+]3ccc4cc5c(c1c4c23)OCO5 [15c, 1,2-Methylenedioxy-8-hydroxy-9-methoxy-13-butylcycloberberine chloride]

The next lines start with the compound.

Structure (SMILES)	MIC (MSSA ATCC 29213)	MIC (MSSA 15)	MIC (MSSA 16-1)	MIC (MSSE ATCC 12228)	MIC (MSSE 16-5)	MIC (S.s ATCC 15305)	MIC (S.h ATCC 35982)	MIC (MRSA 13-18)	MIC (MRSA 13-23)	MIC (MRSA 16-34)	MIC (MRSA ATCC 43300)	MIC (MRSA ATCC-B AA-1708)	MIC (MRSA ATCC -BAA-976)	MIC (VISA ATCC 700698)	MIC (VISA ATCC 700699)	MIC (MRSE 13-3)	MIC (MRSE 16-5)
COc1ccc2c(c[n+]3ccc4cc5c(c6c(Cc7c(F)cccc7F)cc2c3c46)OCO5)c1O [13d, 1,2-Methylenedioxy-8-hydroxy-9-methoxy-13-2′,6′-difluorobenzylcycloberberine chloride]	> 64 µg/mL	> 64 µg/mL	> 64 µg/mL	> 64 µg/mL	> 64 µg/mL	> 64 µg/mL	> 64 µg/mL	> 64 µg/mL	> 64 µg/mL	> 64 µg/mL	> 64 µg/mL	> 64 µg/mL	> 64 µg/mL	> 64 µg/mL	> 64 µg/mL	> 64 µg/mL	32 µg/mL
COc1ccc2c(c[n+]3ccc4cc5c(c6c(Cc7ccc(C(C)(C)C)cc7)cc2c3c46)OCO5)c1O [13k, 1,2-Methylenedioxy-8-hydroxy-9-methoxy-13-p-tert-butylmethylbenzylcyclo berberine chloride]	32 µg/mL	32 µg/mL	16 µg/mL	16 µg/mL	8 µg/mL	32 µg/mL	32 µg/mL	16 µg/mL	32 µg/mL	16 µg/mL	32 µg/mL	8 µg/mL	16 µg/mL	32 µg/mL	32 µg/mL	8 µg/mL	8 µg/mL
COc1ccc2c(c[n+]3ccc4cc5c(c6c(Cc7ccccc7C#N)cc2c3c46)OCO5)c1O [13m, 1,2-Methylenedioxy-8-hydroxy-9-methoxy-13-o-cyanbenzylcycloberberine chloride]	> 64 µg/mL	> 64 µg/mL	> 64 µg/mL	> 64 µg/mL	> 64 µg/mL	> 64 µg/mL	> 64 µg/mL	> 64 µg/mL	> 64 µg/mL	> 64 µg/mL	> 64 µg/mL	> 64 µg/mL	> 64 µg/mL	> 64 µg/mL	> 64 µg/mL	> 64 µg/mL	> 64 µg/mL
COc1ccc2c(c[n+]3ccc4cc5c(c6c(Cc7cccc(C#N)c7)cc2c3c46)OCO5)c1O [13n, 1,2-Methylenedioxy-8-hydroxy-9-dimethoxy-13-m-cyanbenzylcycloberberine chloride]	> 64 µg/mL	> 64 µg/mL	> 64 µg/mL	16 µg/mL	32 µg/mL	> 64 µg/mL	64 µg/mL	> 64 µg/mL	> 64 µg/mL	> 64 µg/mL	> 64 µg/mL	> 64 µg/mL	> 64 µg/mL	> 64 µg/mL	> 64 µg/mL	64 µg/mL	32 µg/mL
CCCc1cc2c3ccc(OC)c(O)c3c[n+]3ccc4cc5c(c1c4c23)OCO5 [15b, 1,2-Methylenedioxy-8-hydroxy-9-methoxy-13-propylcycloberberine chloride]	2 µg/mL	2 µg/mL	2 µg/mL	2 µg/mL	1 µg/mL	8 µg/mL	2 µg/mL	4 µg/mL	4 µg/mL	2 µg/mL	4 µg/mL	2 µg/mL	2 µg/mL	4 µg/mL	2 µg/mL	4 µg/mL	2 µg/mL
